Where “and” joins values, the source holds several entries; their conditions need not be identical. Identical values can stand only once.
Assays:
Wnt/β-catenin pathway = assay: Dual Luciferase TopFlash/Renilla Reporter Assay; assay type: cell-based, human; conditions: for TopFlash relative to ctrl (= 1): Suppl. Fig. 2a; for TopFlash FlAsH III (CK1e-/-), relative to ctrl (= 1): Suppl. Fig. 4f, CK1e-/- cells
Protocol: Cells were transfected 24 h after seeding with 0.1 μg of Super8X TopFlash construct, 0.1 μg of Renilla luciferase construct, and 0.1 μg of corresponding plasmids per well for 6 h in a 24-well plate. As for the ECFP-DVL3 FIII wt stable cell lines, transfection was followed by 4 h induction of tetracycline (1 µg/ml) and 8 h treatment of CM:DMEM (1:1 ratio). For performing this assay, Promega Dual Luciferase assay kit (Promega, #E1910) was used according to the manufacturer’s instructions. Luminescence was measured by a Hidex Bioscan Plate Chameleon Luminometer. Results are depicted as the ratio of TopFlash and Renilla signal (TopFlash fold induction), which was normalized for each experiment to certain control column (normalized TopFlash fold induction). Data were analyzed by MS Excel 2007 and GraphPad Prism 6 and results were shown as the means ± S.D. (number of experiments indicated ad hoc).

[1] = tested on: DVL3 membrane recruitment by FZD6 in HEK293 cells; assay: FZD6-dependent membrane recruitment of DVL3, immunofluorescence; assay type: cell-based, human; parameters: key to Non-recruited (DVL3 membrane recruitment): number of cells out of 100 positive cells scored; conditions: Fig 8c
Text: First, we analyzed the preferred subcellular localization of DVL3 (as introduced in Fig. 2c)[10],[14]. […] Next, we investigated if DVL3 conformation correlates with the capacity of DVL3 to be recruited by FZD6, a key Wnt receptor, to the plasma membrane. For this purpose, we co-expressed FZD6 and analyzed membrane recruitment of DVL3 in FZD6-positive cells by immunofluorescence. Individual cells were categorized as: not recruited (Fig. 8b, no DVL3 in the membrane), partially recruited (clear membrane as well as cytoplasmic localization), and fully recruited (predominantly plasma membrane localization, Fig. 8c, left). […] In the last readout we analyzed the capacity of DVL3 to activate downstream Wnt/β-catenin pathway monitored by TopFlash reporter assay (Fig. 8d). […] On the other hand, under conditions that favor the open conformation both activation as well as inhibition of the Wnt/β-catenin pathway was evident.
For immunofluorescence, cells were seeded (40,000 per well) on 24-well plates with gelatin-coated coverslips and transfected, as indicated, with 0.1 μg of each corresponding plasmid (0.3 μg of mCherry-FZD6) for 6 h. For western blotting and Dual Luciferase TopFlash/Renilla Reporter Assay, cells were seeded (60,000 per well) directly on 24-well plates with 0.1 μg of each corresponding plasmid (if not indicated otherwise) for 6 h. For coimmunoprecipitation, cells were seeded (4.4 × 10^6) on 10-cm dishes and transfected with 1 μg of each corresponding plasmid. The next day after seeding, cells were transfected using polyethyleneimine (PEI) in a stoichiometry of 6 μl of PEI per 1 μg of DNA for 6 h and were harvested 24 h after transfection. The following plasmids used in HEK293 cells have been described previously: FLAG-DVL3 wt[47], CK1ϵ wt[48], mCherry-FZD6 (ref. [37]), and dominant-negative CK1ϵ P3 (ref. [33]). The ECFP-DVL3 wt plasmid was made by Gateway Technology (via LR recombination according to the manufacturer’s instructions; Thermo Fisher Scientific, #11791020) from the donor plasmid pDONR221 DVL3 (DNASU, #FLH178665.01x) and the destination plasmid pdECFP (LMBP, #4548). The HA-DVL3 wt plasmid was made by Gateway Technology from the donor plasmid pDONR221 DVL3 (DNASU, #FLH178665.01x) and the destination plasmid pcDNA3.1 N-term HA (gift from Erich Nigg).
Cells were seeded on gelatin-coated coverslips in 24-well plates and were transfected the next day. Cells were fixed 24 h later in fresh 4% paraformaldehyde, permeabilized with 0.5% Triton X-100, blocked with PBS/BSA/Triton/Azide buffer (PBTA) [3% (wt/vol) BSA, 0.25% Triton, 0.01% NaN3] for 1 h, and incubated overnight with primary antibodies (in dilution 1:500) in PBTA at 4 °C. The next day, the coverslips were washed in PBS and incubated with secondary antibodies conjugated to Alexa Fluor 488 (Invitrogen A11001) or/and Alexa Fluor 594 (Invitrogen A11058) (all in dilution 1:1000), washed with PBS [in case of samples containing FLAG-DVL3 WT and derived variants stained with DAPI (1:5000)], and all coverslips were mounted on microscopic slides. Cells were then visualized on an Olympus IX51 fluorescent microscope using ×40 air or ×100 oil objectives and/or an Olympus Fluoview 500 confocal laser scanning microscope IX71 using ×100 oil objective. One hundred positive cells per experiment (n = 3) were analyzed and scored according to their phenotype into two/three categories (punctae/even); or non-recruited/partially/fully recruited for FZD6-dependent recruitment of DVL3. The antibodies used were as follows: anti-FLAG M2 (Sigma-Aldrich, #F1804), anti-DVL3 (Santa Cruz, #sc-8027), anti-CK1ɛ (Santa Cruz, #sc-6471), anti-RFP (Chromotek, #5h9) and anti-GFP (Fitzgerald, #20R-GR-011).

[2] = tested on: DVL3 subcellular localization in HEK293 cells; assay: DVL3 subcellular localization (punctae/even), immunofluorescence; assay type: cell-based, human
Xenopus laevis embryos = assay: Convergent extension (CE) / neural tube defects in Xenopus embryos (Wnt/PCP readout); assay type: in vivo; conditions: Dorsal injection, 100pg/embryo
Text: In the cell culture model we were unable to dissect the effects on the non-canonical Wnt/PCP pathway, and as such we turned into the Xenopus embryo model. Alterations in the Wnt/PCP pathway activity result in the convergent extension (CE) defects (Supplementary Fig. 7b, right). In order to avoid any artifacts, we tested the constitutively open and closed variants of xDvl3 based on point mutations or small deletions—namely open xDvl3 ΔC and xDvl3 (S267E/S310E) and closedxDvl3 (S267A/S310A). Phosphorylation sites in the PDZ domain are fully conserved between human and Xenopus (for alignment see Supplementary Fig. 5a) and hDVL3 S268/S311 corresponds to xDvl3 S267/S310.
The work with Xenopus laevis was carried out according to the German animal use and care law (Das Tierschutzgesetz) and approved by the local authorities and committees (animal care and housing approval: I/39/EE006, Veterinäramt Erlangen; animal experiments approval: 54-2532.2-8/08, German state administration Bavaria/Regierung von Mittelfranken). The generation and cultivation of Xenopus embryos was done in accordance with general protocols and staged after the normal table of Niewkoop and Faber (1994)[53].
RNA for microinjection was synthesized from plasmids pCS2 myc-xDvl3 (ref. [54]), pCS2 myc-xDvl3 ΔALL (lacking sequence corresponding to aa 338–350, 609–619, and 693–705 in xDvl3), pCS2 xDvl3 (S267A/S310A), pCS2 xDvl3 (S267E/S310E), pCS2 xDvl3 ΔC, and pCS2 xCK1ε[55], respectively, using the mMessage mMachine Kit (Ambion). Embryos were injected at the four-cell stage either into the two ventral blastomeres for testing the constructs' ability to induce a secondary body axis. Injection amounts of synthetic RNA were 500 pg for myc-xDvl3 wild type and the myc-xDvl3 ∆ALL variant, and 150 pg for xCK1ε RNA. For the analysis of morphogenetic defects, four-cell stage embryos were injected into the two dorsal blastomeres with 100 pg myc-xDvl3 RNA and the corresponding variant RNAs. After injection, the embryos were cultivated until they reached stage 26, fixed, and analyzed for axis duplication or morphogenetic defects, respectively.

[3] = sensor FlAsH III, replicate of grid row r5
[4] = sensor FlAsH III, replicate of grid row r6
[5] = sensor FlAsH III, replicate of grid row r7
[6] = Fig 2c, DVL3-FLAG, 10 μM inhibitor, replicate 1, 100 cells
[7] = Fig 8b, ECFP-DVL3 wt, HEK293 wt, inhibitor, exp1-exp3, 100 cells each, listed as INH

Nc1nccc(-c2c(-c3ccc(F)cc3)ncn2C2CCCCC2)n1 [PF670462, reference compound]
TopFlash/Renilla activation, in words (Wnt/β-catenin pathway; DVL3 wt + inhibitor, HEK293 cells, Fig 8d): no (or negligible) TopFlash/Renilla activation | TopFlash relative to DVL3 wt (= 1) (Wnt/β-catenin pathway; Fig 8d, replicate of grid row r4): 0.13 | TopFlash relative to DVL3 wt (= 1) (Wnt/β-catenin pathway; Fig 8d, replicate of grid row r5): 0.1 | TopFlash relative to DVL3 wt (= 1) (Wnt/β-catenin pathway; Fig 8d, replicate of grid row r6): 0.2 | TopFlash relative to ctrl (= 1) (Wnt/β-catenin pathway; sensor FlAsH I, replicate of grid row r5): 0.09288 | TopFlash relative to ctrl (= 1) (Wnt/β-catenin pathway; sensor FlAsH I, replicate of grid row r6): 0.06555 | TopFlash relative to ctrl (= 1) (Wnt/β-catenin pathway; sensor FlAsH I, replicate of grid row r7): 0.095 | TopFlash relative to ctrl (= 1) (Wnt/β-catenin pathway; sensor FlAsH II, replicate of grid row r5): 0.04123 | TopFlash relative to ctrl (= 1) (Wnt/β-catenin pathway; sensor FlAsH II, replicate of grid row r6): 0.0401 | TopFlash relative to ctrl (= 1) (Wnt/β-catenin pathway; sensor FlAsH II, replicate of grid row r7): 0.09362 | TopFlash relative to ctrl (= 1) (Wnt/β-catenin pathway; [3]): 0.07646 | TopFlash relative to ctrl (= 1) (Wnt/β-catenin pathway; [4]): 0.1238 | TopFlash relative to ctrl (= 1) (Wnt/β-catenin pathway; [5]): 0.1277 | TopFlash relative to ctrl (= 1) (Wnt/β-catenin pathway; sensor FlAsH IV, replicate of grid row r5): 0.0466 | TopFlash relative to ctrl (= 1) (Wnt/β-catenin pathway; sensor FlAsH IV, replicate of grid row r6): 0.04626 | TopFlash relative to ctrl (= 1) (Wnt/β-catenin pathway; sensor FlAsH IV, replicate of grid row r7): 0.05626 | TopFlash FlAsH III (CK1e-/-), relative to ctrl (= 1) (Wnt/β-catenin pathway; [3]): 0.8229 | TopFlash FlAsH III (CK1e-/-), relative to ctrl (= 1) (Wnt/β-catenin pathway; [4]): 0.6189 | TopFlash FlAsH III (CK1e-/-), relative to ctrl (= 1) (Wnt/β-catenin pathway; [5]): 1.097 | Fully recruited (DVL3 membrane recruitment) ([1]; exp1): 1 | Non-recruited (DVL3 membrane recruitment) ([1]; exp1): 77 | Partially recruited (DVL3 membrane recruitment) ([1]; exp1): 22 | Fully recruited (DVL3 membrane recruitment) ([1]; exp2): 10 | Non-recruited (DVL3 membrane recruitment) ([1]; exp2): 66 | Partially recruited (DVL3 membrane recruitment) ([1]; exp2): 24 | Fully recruited (DVL3 membrane recruitment) ([1]; exp3): 15 | Non-recruited (DVL3 membrane recruitment) ([1]; exp3): 59 | Partially recruited (DVL3 membrane recruitment) ([1]; exp3): 26 | Even (%) [2, 6]: 1% | Punctae (%) [2, 6]: 99% | Punctae (%) ([2]; Fig 2c, DVL3-FLAG, 10 μM inhibitor, replicate 2, 100 cells): 98% | Punctae (%) ([2]; Fig 2c, DVL3-FLAG, 10 μM inhibitor, replicate 3, 100 cells): 99% | Even (%) [2, 7]: 5% and 11% and 8% | Punctae (%) [2, 7]: 95% and 89% and 92%

B1: WT-Dvl3 (protein, UniProt Q92997 1-716, looked up)
Segment polarity protein …: MGETKIIYHLDGQETPYLVKLPLPAERVTLADFKGVLQRPSYKFFFKSMDDDFGVVKEEISDDNAKLPCFNGRVVSWLVSAEGSHPDPAPFCADNPSELPPPMERTGGIGDSRPPSFHPHAGGGSQENLDNDTETDSLVSAQRERPRRRDGPEHATRLNGTAKGERRREPGGYDSSSTLMSSELETTSFFDSDEDDSTSRFSSSTEQSSASRLMRRHKRRRRKQKVSRIERSSSFSSITDSTMSLNIITVTLNMEKYNFLGISIVGQSNERGDGGIYIGSIMKGGAVAADGRIEPGDMLLQVNEINFENMSNDDAVRVLREIVHKPGPITLTVAKCWDPSPRGCFTLPRSEPIRPIDPAAWVSHTAAMTGTFPAYGMSPSLSTITSTSSSITSSIPDTERLDDFHLSIHSDMAAIVKAMASPESGLEVRDRMWLKITIPNAFIGSDVVDWLYHNVEGFTDRREARKYASNLLKAGFIRHTVNKITFSEQCYYIFGDLCGNMANLSLHDHDGSSGASDQDTLAPLPHPGAAPWPMAFPYQYPPPPHPYNPHPGFPELGYSYGGGSASSQHSEGSRSSGSNRSGSDRRKEKDPKAGDSKSGGSGSESDHTTRSSLRGPRERAPSERSGPAASEHSHRSHHSLASSLRSHHTHPSYGPPGVPPLYGPPMLMMPPPPAAMGPPGAPPGRDLASVPPELTASRQSFRMAMGNPSEFFVDVM
open neural tube (number of embryos) (Xenopus laevis embryos; 1. Injection): 3 | open neural tube (number of embryos) (Xenopus laevis embryos; 2. Injection): 1 | shortened AP axis (number of embryos) (Xenopus laevis embryos; 2. Injection): 0 | open neural tube (number of embryos) (Xenopus laevis embryos; 3. Injection): 0 | shortened AP axis (number of embryos) (Xenopus laevis embryos; 3. Injection): 0 | open NT (number of embryos) (Xenopus laevis embryos; Graph: sum of injections 1-3): 4
